Laboratory results from ChEMBL document CHEMBL1130867, “Ascorbic acid-based inhibitors of alpha-amylases” (Bioorg Med Chem Lett, 1998).

Key:
Conditions in all cases: concentration not given here
Bacteria = assay: Inhibition of Alpha-amylase; set-up: concentration or dose not given beside the values
Fungi = assay: Inhibition of fungal alpha-amylase; set-up: concentration or dose not given beside the values
[1] = molecular target: T1, Pancreatic alpha-amylase (Homo sapiens) (UniProt P04746); assay: Inhibition of pancreatic alpha-amylase; set-up: concentration or dose not given beside the values
T1 sequence (whole entry): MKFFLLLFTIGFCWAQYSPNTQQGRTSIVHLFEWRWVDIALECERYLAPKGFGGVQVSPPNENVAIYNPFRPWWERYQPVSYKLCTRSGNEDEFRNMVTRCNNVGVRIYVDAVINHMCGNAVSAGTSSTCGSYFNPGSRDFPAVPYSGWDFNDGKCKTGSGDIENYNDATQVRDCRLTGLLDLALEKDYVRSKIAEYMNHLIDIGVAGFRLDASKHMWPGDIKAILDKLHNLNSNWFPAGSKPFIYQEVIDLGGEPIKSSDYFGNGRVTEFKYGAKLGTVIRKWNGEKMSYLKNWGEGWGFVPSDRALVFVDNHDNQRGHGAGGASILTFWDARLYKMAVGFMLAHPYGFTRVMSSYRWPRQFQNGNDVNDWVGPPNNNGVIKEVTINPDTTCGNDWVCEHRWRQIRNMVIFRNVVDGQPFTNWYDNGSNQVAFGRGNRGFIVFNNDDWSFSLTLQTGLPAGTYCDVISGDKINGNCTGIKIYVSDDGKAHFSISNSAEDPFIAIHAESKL

[2] = molecular target: T2, Alpha-amylase 1A (Homo sapiens) (UniProt P0DUB6); assay: Inhibition of salivary alpha-amylase
T2 sequence (whole entry): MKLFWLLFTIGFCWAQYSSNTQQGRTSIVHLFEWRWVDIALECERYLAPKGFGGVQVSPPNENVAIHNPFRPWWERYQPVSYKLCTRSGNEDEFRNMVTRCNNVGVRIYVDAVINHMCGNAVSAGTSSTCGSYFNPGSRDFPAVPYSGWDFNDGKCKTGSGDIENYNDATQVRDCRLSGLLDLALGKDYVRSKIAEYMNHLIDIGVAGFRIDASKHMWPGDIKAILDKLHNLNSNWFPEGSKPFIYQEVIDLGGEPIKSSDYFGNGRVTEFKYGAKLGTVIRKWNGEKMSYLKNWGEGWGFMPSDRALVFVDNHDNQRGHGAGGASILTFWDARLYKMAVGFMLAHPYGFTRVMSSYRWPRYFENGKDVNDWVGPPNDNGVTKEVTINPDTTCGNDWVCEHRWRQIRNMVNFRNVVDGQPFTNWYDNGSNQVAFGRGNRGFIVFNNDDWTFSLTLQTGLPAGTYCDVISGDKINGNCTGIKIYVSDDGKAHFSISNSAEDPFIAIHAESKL

[3] = system: Alpha-amylase (Hordeum vulgare); assay: Inhibition of malt alpha-amylase; set-up: concentration or dose not given beside the values

inhibition (Bacteria) [%] | inhibition (Fungi) [%] | inhibition [1] [%] | inhibition [2] [%] | inhibition [3] [%] | Structure (SMILES)
8 | 17 | 0 | – | 29 | COC1=C(O)C(=O)OC1C1COC(C)(C)O1 (centres undefined)
– | – | – | – | 4 | COC1=C(OC)C(C(O)CO)OC1=O (centres undefined)
93 | 91 | 99 | 98 | 93 | CC1(C)OCC(C2OC(=O)C(O)=C2O)O1 (stereo in doubt; 2b)
98 | 94 | 99 | 88 | 90 | CC1(C)OCC(C2OC(=O)C(O)=C2O)O1 (stereo in doubt; 2a)
– | – | – | – | 2 | COC1=C(OC)C(C2COC(C)(C)O2)OC1=O (centres undefined)
– | – | – | – | 3 | COC1=C(OC)C(C(O)COC(C)=O)OC1=O (centres undefined)
– | – | – | – | 9 | COC1=C(OC(C)=O)C(C2COC(C)(C)O2)OC1=O (centres undefined)

Further lines, the compound ahead of its results:

Structure (SMILES) | inhibition (Bacteria) [%] | inhibition (Fungi) [%] | inhibition [1] [%] | inhibition [2] [%] | inhibition [3] [%]
O=C1O[C@H]([C@@H](O)CO)C(O)=C1O (stereo in doubt; 1b) | 99 | 98 | 100 | 100 | –
CCC(=O)OCC(O)C1OC(=O)C(OC)=C1OC (centres undefined) | – | – | – | – | 7
CC(=O)OCC(OC(C)=O)C1OC(O)=C(O)C1=O (centres undefined) | 92 | 91 | 99 | – | 89
CCCCCCCCCCCCCCCC(=O)OC[C@H](O)[C@H]1OC(=O)C(O)=C1O | 84 | 70 | 88 | 69 | –
COC1=C(O)C(=O)OC1C(O)CO (centres undefined) | – | – | – | – | 9
CCCC(=O)OCC(O)C1OC(=O)C(OC)=C1OC (centres undefined) | – | – | – | – | 10
COC1=C(OC)C(C(COC(C)=O)OC(C)=O)OC1=O (centres undefined) | – | – | – | – | 0
